What all share (assay type): biochemical
Test [1] relates to human JAK1. The experiment in a line: In vitro JAK kinase assay (HTRF, phosphorylation of biotinylated peptide), JAK1. As to conditions: ratio of JAK2 IC50 to JAK1 IC50, 1 mM ATP. In outline: (§1)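 Baculovirus-expressed catalytic domains (JAK1 a.a. 837-1142, JAK2 a.a. 828-1132) phosphorylate 500 nM biotinylated peptide at 1 mM ATP, Tris pH 7.8, 1 h at room temperature. EDTA stop and HTRF detection with Eu-Py20/SA-APC; IC50 values derived.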
For orientation: TR-FRET usually uses a lanthanide donor and a delayed reading to cut background.

The target in test [2] is human JAK1 (Homo sapiens, UniProt P23458). Described as above. The following applies: 1 mM ATP. In outline: as §1
Test [3] concerns the target human JAK2 (Homo sapiens (Human), UniProt O60674). As to the kind of experiment: In vitro JAK kinase assay (HTRF, phosphorylation of biotinylated peptide), JAK2. As to conditions: 1 mM ATP. Here is the method:
Compounds herein were tested for inhibitory activity of JAK targets according to the following in vitro assay described in Park et al., Analytical Biochemistry 1999, 269, 94-104. The catalytic domains of human JAK1 (a.a. 837-1142), JAK2 (a.a. 828-1132) and JAK3 (a.a. 781-1124) were expressed using baculovirus in insect cells and purified. The catalytic activity of JAK1, JAK2 or JAK3 was assayed by measuring the phosphorylation of a biotinylated peptide. The phosphorylated peptide was detected by homogenous time resolved fluorescence (HTRF). IC50s of compounds were measured for each kinase in the 40 μL reactions that contain the enzyme, ATP and 500 nM peptide in 50 mM Tris (pH 7.8) buffer with 100 mM NaCl, 5 mM DTT, and 0.1 mg/mL (0.01%) BSA. For the 1 mM IC50 measurements, ATP concentration in the reactions was 1 mM. Reactions were carried out at room temperature for 1 hour and then stopped with 20 μL 45 mM EDTA, 300 nM SA-APC, 6 nM Eu-Py20 in assay buffer (Perkin Elmer, Boston, Mass.). Binding to the Europium labeled antibody took place for 40 minutes and HTRF signal was measured on a PHERA star plate reader (BMG, Cary, N.C.). The Example compounds were each tested in the Example A assay (see Table 1 for data for the compounds of the examples as tested by the assay of Example A at 1 mM ATP).

In US10370387B2, “Tricyclic fused thiophene derivatives as JAK inhibitors” (Incyte Corporation, priority 2012, dated 2019) one finds JAK2/JAK1 and IC50 data, which are given here for seven compounds.

human JAK2, sequence (O60674 828-1132): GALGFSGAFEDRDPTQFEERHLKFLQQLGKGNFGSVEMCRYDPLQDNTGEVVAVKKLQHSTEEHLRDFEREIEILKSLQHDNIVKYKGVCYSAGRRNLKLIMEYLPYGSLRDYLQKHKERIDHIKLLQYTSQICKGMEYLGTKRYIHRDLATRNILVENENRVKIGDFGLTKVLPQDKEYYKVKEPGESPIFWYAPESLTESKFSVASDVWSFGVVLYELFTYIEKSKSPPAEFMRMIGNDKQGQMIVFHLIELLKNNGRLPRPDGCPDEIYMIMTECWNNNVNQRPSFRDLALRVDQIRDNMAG

Turning to `Cc1nn2cnc3ccsc3c2c1-c1ccc(CC#N)cc1` [Example 46, [4-(8-Methylpyrazolo[1,5-c]thieno[2,3-e]pyrimidin-9-yl)phenyl]acetonitrile], the JAK2/JAK1 in test [1] was above 3. The IC50 – broadly, the concentration at which inhibition is half-maximal – is at most 100 nM in test [2] and at most 1000 nM in test [3].

For the compound “((1R,2R,4S)-2-Hydroxy-4-{2-[(1R)-1-hydroxyethyl]-1H-imidazo[4,5-d]thieno[3,2-b]pyridin-1-yl}cyclohexyl)acetonitrile and ((1S,2S,4R)-2-hydroxy-4-{2-[(1R)-1-hydroxyethyl]-1H-imidazo[4,5-d]thieno[3,2-b]pyridin-1-yl}cyclohexyl)acetonitrile [36 (first peak)]”, the JAK2/JAK1 in test [1] is listed as above 10. For the compound “((1R,2R,4S)-2-Hydroxy-4-{2-[(1R)-1-hydroxyethyl]-1H-imidazo[4,5-d]thieno[3,2-b]pyridin-1-yl}cyclohexyl)acetonitrile and ((1S,2S,4R)-2-hydroxy-4-{2-[(1R)-1-hydroxyethyl]-1H-imidazo[4,5-d]thieno[3,2-b]pyridin-1-yl}cyclohexyl)acetonitrile [36 (second peak)]”, the JAK2/JAK1 in test [1] was above 10. Still for that read-out and setting: in the case of “((1R,2S,4S)-2-Hydroxy-4-{2-[(1R)-1-hydroxyethyl]-1H-imidazo[4,5-d]thieno[3,2-b]pyridin-1-yl}cyclohexyl)acetonitrile trifluoacetate and ((1S,2R,4R)-2-hydroxy-4-{2-[(1R)-1-hydroxyethyl]-1H-imidazo[4,5-d]thieno[3,2-b]pyridin-1-yl}cyclohexyl)acetonitrile trifluoacetate [37 (first peak)]” it was above 10; in that of “((1R,2S,4S)-2-Hydroxy-4-{2-[(1R)-1-hydroxyethyl]-1H-imidazo[4,5-d]thieno[3,2-b]pyridin-1-yl}cyclohexyl)acetonitrile trifluoacetate and ((1S,2R,4R)-2-hydroxy-4-{2-[(1R)-1-hydroxyethyl]-1H-imidazo[4,5-d]thieno[3,2-b]pyridin-1-yl}cyclohexyl)acetonitrile trifluoacetate [37 (second peak)]”, above 10; in that of “[(1R,2S,4S)-4-(2-Ethyl-1H-imidazo[4,5-d]thieno[3,2-b]pyridin-1-yl)-2-hydroxycyclohexyl]acetonitrile and [(1S,2R,4R)-4-(2-ethyl-1H-imidazo[4,5-d]thieno[3,2-b]pyridin-1-yl)-2-hydroxycyclohexyl]acetonitrile [40 (first peak)]”, above 10. With “[(1R,2S,4S)-4-(2-Methyl-1H-imidazo[4,5-d]thieno[3,2-b]pyridin-1-yl)-2-hydroxycyclohexyl]acetonitrile and [(1S,2R,4R)-4-(2-methyl-1H-imidazo[4,5-d]thieno[3,2-b]pyridin-1-yl)-2-hydroxycyclohexyl]acetonitrile [41 (first peak)]”, in test [1], the JAK2/JAK1 is above 10.
